Test results taken from PubChem BioAssay AID2060497 (Molecular Pharmacology Branch, DTP, NCI, 2025).

Test system: 317291-083-R-J1-PDC complex spheroids, viability
Assay: Anticancer human tumor 317291-083-R-J1-PDC patient-derived soft tissue sarcoma cell line growth inhibition [GQUAD]
Conditions: for IC50: curve of first compound; for viability, T/C: stronger effect = lower value
Outline: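 Tumor cells were grown as complex spheroids with HUVEC endothelial cells and mesenchymal stem cells as stroma. G-quadruplex stabilizers were combined with targeted agents over half-log dilutions from near the clinical Cmax, or from 10 microM.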
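Also: spheroids exposed to compounds for one week before readout.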
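For viability, T/C in this document: percent viability relative to DMSO vehicle wells taken as 100%.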

CC(C)n1c(=O)n(C)c2cnc3cc(F)c(-c4ccc(OCCCN5CCCCC5)nc4)cc3c21 + Cc1cnc(CNC(=O)c2c(=O)c3ccc(N4CCCN(C)CC4)nc3n3c2sc2ccccc23)cn1
IC50 (second compound 0.0316 µM): 858 nM
IC50 (second compound 0.1 µM): < 31.6 nM
IC50 (second compound 0.316 µM): < 31.6 nM
IC50 (second compound 1 µM): < 31.6 nM
IC50 (second compound 3.16 µM): < 31.6 nM
IC50 (second compound 10 µM): < 31.6 nM
viability, T/C (second compound 0.0316 µM, first compound 0.0316 µM): 57.3%
viability, T/C (second compound 0.0316 µM, first compound 0.1 µM): 51.3%
viability, T/C (second compound 0.0316 µM, first compound 0.316 µM): 45.1%
viability, T/C (second compound 0.0316 µM, first compound 1 µM): 29.2%
viability, T/C (second compound 0.0316 µM, first compound 3.16 µM): 73.3%
viability, T/C (second compound 0.0316 µM, first compound 10 µM): 44.5%
viability, T/C (second compound 0.1 µM, first compound 0.0316 µM): 37.1%
viability, T/C (second compound 0.1 µM, first compound 0.1 µM): 37%
viability, T/C (second compound 0.1 µM, first compound 0.316 µM): 24.6%
viability, T/C (second compound 0.1 µM, first compound 1 µM): 25.9%
viability, T/C (second compound 0.1 µM, first compound 3.16 µM): 23.9%
viability, T/C (second compound 0.1 µM, first compound 10 µM): 25.3%
viability, T/C (second compound 0.316 µM, first compound 0.0316 µM): 21.2%
viability, T/C (second compound 0.316 µM, first compound 0.1 µM): 25.9%
viability, T/C (second compound 0.316 µM, first compound 0.316 µM): 25.4%
viability, T/C (second compound 0.316 µM, first compound 1 µM): 22.1%
viability, T/C (second compound 0.316 µM, first compound 3.16 µM): 33%
viability, T/C (second compound 0.316 µM, first compound 10 µM): 17.5%
viability, T/C (second compound 1 µM, first compound 0.0316 µM): 18.2%
viability, T/C (second compound 1 µM, first compound 0.1 µM): 22.1%
viability, T/C (second compound 1 µM, first compound 0.316 µM): 23.5%
viability, T/C (second compound 1 µM, first compound 1 µM): 19.4%
viability, T/C (second compound 1 µM, first compound 3.16 µM): 21.9%
viability, T/C (second compound 1 µM, first compound 10 µM): 21.5%
viability, T/C (second compound 3.16 µM, first compound 0.0316 µM): 11.4%
viability, T/C (second compound 3.16 µM, first compound 0.1 µM): 13.9%
viability, T/C (second compound 3.16 µM, first compound 0.316 µM): 29.8%
viability, T/C (second compound 3.16 µM, first compound 1 µM): 10.7%
viability, T/C (second compound 3.16 µM, first compound 3.16 µM): 13.1%
viability, T/C (second compound 3.16 µM, first compound 10 µM): 11.4%
viability, T/C (second compound 10 µM, first compound 0.0316 µM): 26.2%
viability, T/C (second compound 10 µM, first compound 0.1 µM): 16.6%
viability, T/C (second compound 10 µM, first compound 0.316 µM): 10.7%
viability, T/C (second compound 10 µM, first compound 1 µM): 21.9%
viability, T/C (second compound 10 µM, first compound 3.16 µM): 25.5%
viability, T/C (second compound 10 µM, first compound 10 µM): 23.4%
